# Laboratory results published in PMC11027065 (Analytical chemistry, 2020).
# Molecular target: T1, insulin-regulated aminopeptidase (IRAP, EC 3.4.11.3) (Rattus norvegicus, UniProt P97629)
# T1 sequence (P97629 1-1025): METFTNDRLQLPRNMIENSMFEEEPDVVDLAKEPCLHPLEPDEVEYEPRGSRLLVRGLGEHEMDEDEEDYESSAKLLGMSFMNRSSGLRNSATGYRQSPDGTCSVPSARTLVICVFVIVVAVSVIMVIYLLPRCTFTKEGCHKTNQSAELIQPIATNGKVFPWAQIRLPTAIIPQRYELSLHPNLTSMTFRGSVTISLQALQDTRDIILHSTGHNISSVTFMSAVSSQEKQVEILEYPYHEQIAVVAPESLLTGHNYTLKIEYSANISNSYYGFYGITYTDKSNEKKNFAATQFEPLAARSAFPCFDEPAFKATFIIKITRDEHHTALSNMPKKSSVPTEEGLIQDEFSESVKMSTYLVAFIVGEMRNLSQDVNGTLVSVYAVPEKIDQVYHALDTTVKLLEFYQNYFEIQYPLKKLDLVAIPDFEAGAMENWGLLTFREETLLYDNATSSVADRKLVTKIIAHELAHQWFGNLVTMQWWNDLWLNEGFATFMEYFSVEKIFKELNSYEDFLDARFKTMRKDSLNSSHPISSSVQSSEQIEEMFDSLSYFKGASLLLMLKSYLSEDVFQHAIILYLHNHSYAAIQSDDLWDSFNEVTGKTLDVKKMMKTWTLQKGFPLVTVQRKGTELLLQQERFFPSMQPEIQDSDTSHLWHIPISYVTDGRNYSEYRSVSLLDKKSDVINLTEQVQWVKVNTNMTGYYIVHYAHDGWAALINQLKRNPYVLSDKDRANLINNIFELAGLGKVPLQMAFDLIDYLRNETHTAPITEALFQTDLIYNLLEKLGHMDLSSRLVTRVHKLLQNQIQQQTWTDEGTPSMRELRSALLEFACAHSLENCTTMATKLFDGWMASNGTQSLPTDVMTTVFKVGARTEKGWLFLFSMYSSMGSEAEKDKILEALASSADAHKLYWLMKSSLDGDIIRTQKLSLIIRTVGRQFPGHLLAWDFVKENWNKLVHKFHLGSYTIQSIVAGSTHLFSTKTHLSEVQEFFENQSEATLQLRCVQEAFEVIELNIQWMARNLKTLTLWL
# Experiment: EOP-MD probe with cLC-MS2: effect of HFI-419 on LE hydrolysis in vivo
# Details: 50 μM HFI-419; GGFL detected without inhibitor; data not shown
smiles,measurement,value
CCOC(=O)C1=C(NC(C)=O)Oc2cc(O)ccc2C1c1cccnc1 (stereo not shown) [HFI-419],product GGFL in dialysate during infusion of inhibitor,undetected
